According to ChEMBL document CHEMBL3860091, “Synthesis and activity of newly designed aroxyalkyl or aroxyethoxyethyl derivatives of piperazine on the cardiovascular and the central nervous systems” (Bioorg Med Chem Lett, 2016):

What was measured:
Rattus norvegicus = species: Rattus norvegicus; experiment: Selectivity ratio of Ki for rat brain cerebral cortex alpha2 adrenergic receptor to Ki for rat brain cerebral cortex alpha1 adrenergic receptor
[1] = target: T1, Adrenergic receptor alpha-1 (Rattus norvegicus, UniProt P15823+P23944+P43140); experiment: Antagonist activity at alpha1 adrenergic receptor in rat aorta assessed as inhibition of phenylephrine-induced aortic contraction
T1 sequence (P15823 whole entry): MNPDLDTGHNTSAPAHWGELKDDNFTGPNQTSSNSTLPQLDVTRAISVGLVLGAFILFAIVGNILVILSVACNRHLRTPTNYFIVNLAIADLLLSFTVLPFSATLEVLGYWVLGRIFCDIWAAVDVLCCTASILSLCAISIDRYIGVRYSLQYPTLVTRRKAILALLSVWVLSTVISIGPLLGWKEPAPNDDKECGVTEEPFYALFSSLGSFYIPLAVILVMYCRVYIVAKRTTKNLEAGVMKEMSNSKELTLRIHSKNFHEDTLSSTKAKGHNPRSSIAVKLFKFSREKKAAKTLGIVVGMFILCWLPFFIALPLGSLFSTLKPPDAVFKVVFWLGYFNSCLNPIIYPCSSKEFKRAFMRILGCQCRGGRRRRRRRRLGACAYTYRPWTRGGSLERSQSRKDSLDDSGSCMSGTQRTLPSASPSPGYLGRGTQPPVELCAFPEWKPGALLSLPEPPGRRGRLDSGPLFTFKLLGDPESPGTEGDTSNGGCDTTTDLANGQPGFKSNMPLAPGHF
T1 sequence (P23944 whole entry): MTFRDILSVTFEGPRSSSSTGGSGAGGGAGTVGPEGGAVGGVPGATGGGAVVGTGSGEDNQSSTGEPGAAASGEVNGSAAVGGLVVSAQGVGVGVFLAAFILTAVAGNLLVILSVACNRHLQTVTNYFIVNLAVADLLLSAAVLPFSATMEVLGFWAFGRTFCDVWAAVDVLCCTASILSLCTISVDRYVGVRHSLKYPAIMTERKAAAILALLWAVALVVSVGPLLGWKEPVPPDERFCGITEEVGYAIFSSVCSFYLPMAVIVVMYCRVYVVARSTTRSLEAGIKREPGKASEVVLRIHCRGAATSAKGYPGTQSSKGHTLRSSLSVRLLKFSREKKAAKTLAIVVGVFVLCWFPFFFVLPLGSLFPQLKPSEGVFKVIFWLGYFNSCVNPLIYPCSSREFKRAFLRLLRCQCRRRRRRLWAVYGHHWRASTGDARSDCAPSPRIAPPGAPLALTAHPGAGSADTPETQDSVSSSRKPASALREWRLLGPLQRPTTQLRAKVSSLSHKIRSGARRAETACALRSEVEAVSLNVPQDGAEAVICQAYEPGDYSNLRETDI
T1 sequence (P43140 whole entry): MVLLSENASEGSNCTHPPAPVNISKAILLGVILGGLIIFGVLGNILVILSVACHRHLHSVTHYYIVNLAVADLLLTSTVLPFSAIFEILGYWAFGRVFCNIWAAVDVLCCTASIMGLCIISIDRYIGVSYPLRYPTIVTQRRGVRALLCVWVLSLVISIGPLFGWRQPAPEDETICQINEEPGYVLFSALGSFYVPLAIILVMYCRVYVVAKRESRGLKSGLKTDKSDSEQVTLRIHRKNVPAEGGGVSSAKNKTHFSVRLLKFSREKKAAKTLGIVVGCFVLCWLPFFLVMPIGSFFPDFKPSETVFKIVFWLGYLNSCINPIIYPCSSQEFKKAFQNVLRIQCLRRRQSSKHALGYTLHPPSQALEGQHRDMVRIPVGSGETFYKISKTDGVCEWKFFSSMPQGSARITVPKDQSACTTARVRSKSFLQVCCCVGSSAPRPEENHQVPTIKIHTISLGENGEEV

[2] = target: T1, Adrenergic receptor alpha-1; experiment: Displacement of [3H]prazosin from alpha1 adrenergic receptor in rat brain cerebral cortex; type: tissue-based
[3] = Antidepressant-like activity in mouse assessed as immobility time at 10 mg/kg, ip by tail suspension test (reference value: 154.2 +/- 10.2 sec); type: functional, organism-based
[4] = Antidepressant-like activity in mouse assessed as immobility time at 5 mg/kg, ip by tail suspension test (reference value: 154.2 +/- 10.2 sec); type: functional, organism-based

Row | Ratio Ki (Rattus norvegicus) | pA2 [1] | Ki [2] [nM] | SMILES | TIME [3] [h] | TIME [4] [h]
1 | 13.3 | 8.534 | 2.8 | COc1ccccc1N1CCN(CCCOc2cccc(C)c2C)CC1.Cl | – | –
2 | – | – | – | CN(C)CCCN1c2ccccc2CCc2ccccc21 | 0.0283 | 0.0363
3 | 142 | 8.807 | 2.4 | COc1ccccc1N1CCN(CCCOc2c(C)cccc2C)CC1.Cl | – | –
